The text below walks through data of ChEMBL document CHEMBL3997846, “Synthesis and activity of nucleoside-based antiprotozoan compounds” (Bioorg Med Chem, 2017).

Data set [1] deals with Trypanosoma brucei rhodesiense. Kind of data set: Antitrypanosomal activity against bloodstream forms of Trypanosoma brucei rhodesiense STIB900 trypomastigotes after 72 hrs by alamar blue assay. In kind it is functional. As to conditions: STIB900, 72 h. On the technique in general: Alamar Blue is a resazurin reagent that responds to reducing activity.
Data set [2] can be described thus: Selectivity index, ratio of IC50 for rat L6 cells to IC50 for bloodstream forms of Trypanosoma brucei rhodesiense STIB900 trypomastigotes. In kind it is toxicity. As to conditions: read-out: Ratio IC50.
For a further data set, the system named is Trypanosoma cruzi. Kind of data set: Antitrypanosomal activity against Trypanosoma cruzi Tulahuen strain C2C4 amastigote forms harboring LacZ infected in rat L6 cells after 96 hrs by CPRG/Nonidet reagent based photometric method. The class given is functional, cell-based. As to conditions: Tulahuen strain C2C4, L6, 96 h.
Data set [3] in a line: Selectivity index, ratio of IC50 for rat L6 cells to IC50 for Trypanosoma cruzi Tulahuen strain C2C4 amastigote forms harboring LacZ infected in rat L6 cells. The class given is toxicity, cell-based. As to conditions: read-out: Ratio IC50.
A further data set has as its system Leishmania donovani. Kind of data set: Antileishmanial activity against Leishmania donovani MHOM/SD/62/ISCL2D axenic amastigotes after 72 hrs by alamar blue assay. The class given is functional.
Data set [4] in a line: Selectivity index, ratio of IC50 for rat L6 cells to IC50 for Leishmania donovani MHOM/SD/62/ISCL2D axenic amastigotes. In kind it is toxicity. As to conditions: read-out: Ratio IC50.
The subject of the next data set is L6. Kind of data set: Cytotoxicity against rat L6 cells assessed as growth inhibition after 72 hrs by alamar blue assay. In kind it is cell-based. As to conditions: L6, 72 h.
In another data set the test system is Plasmodium falciparum. Kind of data set: Antiplasmodial activity against chloroquine resistant Plasmodium falciparum K1 erythrocytic stage assessed as reduction in [3H]hypoxanthine incorporation after 48 hrs by liquid scintillation counting assay. The class given is functional.
A short description of data set [5]: Selectivity index, ratio of IC50 for rat L6 cells to IC50 for chloroquine resistant Plasmodium falciparum K1 erythrocytic stage. As to conditions: read-out: Ratio IC50. The class given is toxicity.

The IC50 is the concentration at which inhibition is half-maximal.

Regarding `CSC[C@H]1O[C@@H](n2cnc3c(N)nc(I)nc32)[C@H](O)[C@@H]1O`, the figures for the IC50 (in [1]; with Trypanosoma cruzi; in the data set with Leishmania donovani) were 5 µM, 88 µM and 132 µM, respectively. Besides, the selectivity ratio in data set [2] was 27; in data set [3], 2; in data set [4], 1.
In the case of `C[C@H]1O[C@@H](n2cnc3c(N)nc(Cl)nc32)[C@H](O)[C@@H]1O`, the IC50 was 84 µM in data set [1], 189 µM in the data set on Trypanosoma cruzi and 49 µM with Leishmania donovani. The selectivity ratio in [2] was 2; in data set [3], 0.8; in data set [4], 3.
On to `CNc1ncnc2c1ncn2[C@@H]1O[C@H](C)[C@@H](O)[C@H]1O`, for which the IC50 was 206 µM in data set [1], 195 µM in the data set with Trypanosoma cruzi and over 380 µM in the data set with Leishmania donovani. The results for the selectivity ratio in [2], in data set [3] and in [4] were 1, 1 and under 0.7, respectively.
On to `CNc1nc(C#N)nc2c1ncn2[C@@H]1O[C@H](C)[C@@H](O)[C@H]1O`, for which the 50% inhibitory concentration (IC50) came to 111 µM in data set [1], 45 µM with Trypanosoma cruzi and 148 µM with Leishmania donovani. For the same compound, the selectivity ratio in data set [2] stood at 0.8; in data set [3], 2; in [4] it was 0.6.
As to `C[C@H]1O[C@@H](n2cnc3c(N)nc(NN)nc32)[C@H](O)[C@@H]1O`, the IC50 in data set [1] turned out to be 132 µM; in the data set on Trypanosoma cruzi it was 147 µM; with Leishmania donovani, 73 µM. Also, the selectivity ratio in [2] came out at 1; in [3] it was 1; in [4], 3.
Take `C[C@H]1O[C@@H](n2cnc3c(N)nc(F)nc32)[C@H](O)[C@@H]1O`: the IC50 in data set [1] was found to be 65 µM; with Trypanosoma cruzi it was 7.1 µM; in the data set on Leishmania donovani, 0.88 µM. The selectivity ratio in data set [2] was under 0.1; in data set [3] it was 0.3; in data set [4] it was 2.
Consider `C[C@H]1O[C@@H](n2cnc3c(N)nc(N=[N+]=[N-])nc32)[C@H](O)[C@@H]1O`, for which the values for the IC50 (in data set [1]; in the data set with Trypanosoma cruzi; in the data set on Leishmania donovani) were 137 µM, 167 µM and 125 µM, respectively. Further, the selectivity ratio in [2] was 1; in data set [3], 1; in [4], 2.
`CNc1nc(I)nc2c1ncn2[C@@H]1O[C@H](C)[C@@H](O)[C@H]1O`: the figures for the 50% inhibitory concentration (IC50) (in data set [1]; in the data set with Trypanosoma cruzi; in the data set with Leishmania donovani) were 49 µM, 126 µM and 199 µM, respectively. The selectivity ratio in [2] was 3; in data set [3] it was 1; in [4] it was 0.7.
`C[C@H]1O[C@@H](n2cnc3c(N)nc(N)nc32)[C@H](O)[C@@H]1O`: the IC50 in data set [1] was 224 µM; with Trypanosoma cruzi, over 340 µM; in the data set with Leishmania donovani, 51 µM. Moreover, the selectivity ratio in data set [2] is 2; in data set [3], under 1; in data set [4], 7.
As to `CNc1nc(F)nc2c1ncn2[C@@H]1O[C@H](C)[C@@H](O)[C@H]1O`, the figures for the IC50 (in data set [1]; in the data set with Trypanosoma cruzi; in the data set with Leishmania donovani) were 194 µM, 20 µM and over 353 µM, respectively. The results for the selectivity ratio in data set [2], in [3] and in data set [4] were 1, 12 and 0.7, respectively.
`C[C@H]1O[C@@H](n2cnc3c(N)nc(I)nc32)[C@H](O)[C@@H]1O`: the half-maximal inhibitory concentration (IC50) in [1] came out at 27 µM; in the data set with Trypanosoma cruzi it was 120 µM; in the data set with Leishmania donovani, 208 µM. For the same compound, the selectivity ratio in data set [2] was determined as 4; in [3], 0.9; in data set [4] it was 0.5.
For the compound `C[C@H]1O[C@@H](n2cnc3c(N)nc(C#N)nc32)[C@H](O)[C@@H]1O`, the values for the concentration for half-maximal inhibition (IC50) (in [1]; with Trypanosoma cruzi; in the data set with Leishmania donovani) were 79 µM, 144 µM and 100 µM, respectively. Also, the selectivity ratio in [2] is 2; in data set [3], 1; in [4], 2.
For the compound `CNc1ncnc2c1ncn2[C@@H]1O[C@H](CSC)[C@@H](O)[C@H]1O`, the values for the half-maximal inhibitory concentration (IC50) (in data set [1]; with Trypanosoma cruzi; in the data set on Leishmania donovani) were 16 µM, 191 µM and over 320 µM, respectively. Besides, the values for the selectivity ratio in [2], in data set [3] and in data set [4] were 10, 0.8 and under 0.5, respectively.
For `CSC[C@H]1O[C@@H](n2cnc3c(/N=C/N(C)C)nc(F)nc32)[C@H](O)[C@@H]1O`, the IC50 in data set [1] was 62 µM; with Trypanosoma cruzi it was 114 µM; in the data set on Leishmania donovani, 2.5 µM. In addition, the selectivity ratio in data set [2] is under 0.1; in data set [3], under 0.1; in [4], 0.6.
Consider `CSC[C@H]1O[C@@H](n2cnc3c(N)nc(C#N)nc32)[C@H](O)[C@@H]1O`, for which the values for the 50% inhibitory concentration (IC50) (in data set [1]; in the data set with Trypanosoma cruzi; with Leishmania donovani) were 66 µM, 150 µM and 266 µM, respectively. Moreover, the results for the selectivity ratio in data set [2], in [3] and in [4] were 2, 1 and 0.6, respectively.
`C[S+]([O-])C[C@H]1O[C@@H](n2cnc3c(N)nc(Cl)nc32)[C@H](O)[C@@H]1O` (stereo partly drawn): the IC50 in [1] was 75 µM; with L6, 259 µM; in the data set with Trypanosoma cruzi, over 260 µM; in the data set on Leishmania donovani it was over 260 µM; in the data set with Plasmodium falciparum, 14 µM. The selectivity ratio in data set [2] is 3; in data set [3], under 1; in [4], under 1; in data set [5], 18.
For `CNc1nc(I)nc2c1ncn2[C@@H]1O[C@H](CSC)[C@@H](O)[C@H]1O`, the concentration for half-maximal inhibition (IC50) in data set [1] was 21 µM; with Trypanosoma cruzi, 104 µM; in the data set on Leishmania donovani, 101 µM. For the same compound, the selectivity ratio in [2] was determined as 6; in data set [3], 1; in data set [4], 1.
As to `CSC[C@H]1O[C@@H](n2cnc3c(N)nc(F)nc32)[C@H](O)[C@@H]1O`, the values for the concentration for half-maximal inhibition (IC50) (in data set [1]; in the data set with Trypanosoma cruzi; with Leishmania donovani) were 4.3 µM, 2.6 µM and 0.8 µM, respectively. The results for the selectivity ratio in data set [2], in data set [3] and in data set [4] were 0.1, 0.2 and 0.7, respectively.
As for `CSC[C@H]1O[C@@H](n2cnc3c(N(C)N=O)nc(F)nc32)[C@H](O)[C@@H]1O`, the IC50 in data set [1] was determined as 56 µM; in the data set with Trypanosoma cruzi, 129 µM; in the data set on Leishmania donovani, 190 µM. Further, the selectivity ratio in [2] is 2; in data set [3], 0.9; in [4], 0.6.
For the compound `CS(=O)(=O)C[C@H]1O[C@@H](n2cnc3c(N)nc(F)nc32)[C@H](O)[C@@H]1O`, the IC50 was determined as 17 µM in data set [1]; 5 µM with L6; 35 µM in the data set on Trypanosoma cruzi; 37 µM in the data set on Leishmania donovani; 8 µM in the data set on Plasmodium falciparum. Further, the selectivity ratio in [2] worked out at 0.3; in data set [3] it was 0.1; in [4], 0.1; in data set [5], 0.6.
In the case of `C[S+]([O-])C[C@H]1O[C@@H](n2cnc3c(N)nc(F)nc32)[C@H](O)[C@@H]1O` (stereo partly drawn), the IC50 turned out to be 34 µM in data set [1]; 13 µM in the data set with L6; 74 µM in the data set with Trypanosoma cruzi; 33 µM in the data set with Leishmania donovani; 5.8 µM in the data set with Plasmodium falciparum. Also, the selectivity ratio in data set [2] amounted to 0.4; in data set [3] it was 0.2; in [4] it was 0.4; in [5] it was 2.
For the compound `CSC[C@H]1O[C@@H](n2cnc3c(N)nc(N=[N+]=[N-])nc32)[C@H](O)[C@@H]1O`, the figures for the concentration for half-maximal inhibition (IC50) (in [1]; in the data set on Trypanosoma cruzi; in the data set on Leishmania donovani) were 51 µM, 144 µM and 288 µM, respectively. Besides, the selectivity ratio in data set [2] is 5; in [3], 2; in data set [4] it was 0.8.
Take `CNc1nc(C#N)nc2c1ncn2[C@@H]1O[C@H](CSC)[C@@H](O)[C@H]1O`: the half-maximal inhibitory concentration (IC50) in data set [1] was found to be 30 µM; with Trypanosoma cruzi, 25 µM; in the data set on Leishmania donovani, 22 µM. In addition, the selectivity ratio turned out to be 0.8 in data set [2], 1 in data set [3] and 1 in [4].
As for `CC(=O)O[C@@H]1[C@H](OC(C)=O)[C@@H](CS(C)(=O)=O)O[C@H]1n1cnc2c(N)nc(Cl)nc21`, the half-inhibitory concentration (IC50) in [1] is 14 µM; in the data set with L6 it was 114 µM; in the data set on Trypanosoma cruzi, over 200 µM; in the data set with Leishmania donovani, over 200 µM; with Plasmodium falciparum it was 10 µM. In addition, the selectivity ratio is 8 in data set [2], under 0.6 in data set [3], under 0.6 in [4] and 11 in data set [5].
Regarding `CSC[C@H]1O[C@@H](n2cnc3c(N)nc(Cl)nc32)[C@H](O)[C@@H]1O`, the half-maximal inhibitory concentration (IC50) in [1] is 203 µM; with Trypanosoma cruzi, over 270 µM; with Leishmania donovani it was 60 µM. For the same compound, the selectivity ratio in data set [2] is 1; in data set [3] it was under 1; in data set [4], 5.
For the compound `CSC[C@H]1O[C@@H](n2cnc3c(N)nc(NN)nc32)[C@H](O)[C@@H]1O`, the 50% inhibitory concentration (IC50) was 149 µM in data set [1], 157 µM in the data set on Trypanosoma cruzi and 173 µM in the data set with Leishmania donovani. For the same compound, the selectivity ratio in [2], in data set [3] and in [4] was 1 throughout.
Take `O=C(Cn1ccnc1[N+](=O)[O-])NCc1ccccc1` [BENZNIDAZOLE]: the figures for the IC50 in the data set on L6 and with Trypanosoma cruzi were over 385 µM and 1.64 µM, respectively.
As to `CCN(CC)CCCC(C)Nc1ccnc2cc(Cl)ccc12` (stereo not drawn) [CHLOROQUINE], the IC50 in the data set with L6 was 91 µM.
With `CCCCCCCCCCCCCCCCOP(=O)([O-])OCC[N+](C)(C)C` [MILTEFOSINE], the IC50 came to 137 µM in the data set on L6 and 0.3 µM in the data set on Leishmania donovani.
